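Assay format: 96-well plates, 48-hour exposure. Here, GI50 denotes the concentration required for 50% inhibition of growth. Definition used: TGI = concentration required for complete inhibition of growth.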

Among the test systems are CCRF-CEM leukemia; HCT-116 colon; HT29 colon; K-562 leukemia; KM12 colon; SK-MEL-2 melanoma; SNB-19 CNS; A549 NSCLC; COLO 205 colon; LOX IMVI melanoma.
What all share (assay): DTP human tumour cell line panel, 48 h

Consider `COC(OC)c1cc2c(cc1C(=O)[C@@]13CCC[C@@H]1NC(=O)O3)OCO2`, for which the TGI in the test on CCRF-CEM leukemia, in the test with HCT-116 colon, with HT29 colon, in the test with K-562 leukemia, with KM12 colon and with SK-MEL-2 melanoma was more than 100 µM each time. In the test with SNB-19 CNS, this compound registered a TGI of more than 100 µM.

Regarding `C=[CH][Sn]([CH]=C)([O]c1cccc2cccnc12)[O]c1cccc2cccnc12`, the GI50 with A549 NSCLC was 3.37 µM; with COLO 205 colon, 1.79 µM; with HCT-116 colon, 1.12 µM; in the test on HT29 colon it was 3.26 µM; in the test with K-562 leukemia, 2.73 µM; with KM12 colon, 3.2 µM. For the same compound, the GI50 is 1.46 µM in the test on LOX IMVI melanoma, 1.72 µM in the test with SK-MEL-2 melanoma and 8.36 µM in the test with SNB-19 CNS. The TGI in the test on A549 NSCLC was 13.9 µM; in the test with COLO 205 colon, 3.19 µM; in the test with HCT-116 colon, 2.46 µM; in the test with HT29 colon it was 7.14 µM; with K-562 leukemia, more than 24.9 µM; in the test with KM12 colon, 7.34 µM. The TGI with LOX IMVI melanoma was 4.86 µM; with SK-MEL-2 melanoma, 7.87 µM; in the test on SNB-19 CNS, 23.8 µM.

With `O=C1C=CC2(C=C1)C[C@H](NC(=O)C(F)(F)F)C(=O)O2`, the TGI in the test on A549 NSCLC is more than 100 µM; with CCRF-CEM leukemia it was 50.9 µM; in the test on COLO 205 colon it was more than 100 µM; in the test with HCT-116 colon, more than 100 µM; in the test with HT29 colon, more than 100 µM; in the test with K-562 leukemia it was 65.8 µM. The TGI was more than 100 µM with KM12 colon, 51 µM with LOX IMVI melanoma and more than 100 µM in the test with SNB-19 CNS.

As to `CCN(CC)CCN(C(=O)C(C)(C)C)c1ccccc1N`, the TGI in the test on A549 NSCLC, with CCRF-CEM leukemia, with HCT-116 colon, with HT29 colon, in the test with K-562 leukemia and in the test with KM12 colon was more than 100 µM throughout. The total growth inhibition concentration (TGI) with SNB-19 CNS was more than 100 µM.

Consider `CC1(C)CC[C@]2(C(N)=O)CC[C@]3(C)C(=CC[C@@H]4[C@@]5(C)C/C(=C/c6ccncc6)C(=O)C(C)(C)[C@@H]5CC[C@]43C)[C@@H]2C1`, for which the GI50 in the test on A549 NSCLC is 2.35 µM; in the test with CCRF-CEM leukemia it was 2.13 µM; with HCT-116 colon, 1.49 µM; with K-562 leukemia it was 2.28 µM; with KM12 colon it was 1.79 µM; in the test with SK-MEL-2 melanoma, 1.92 µM. Further, the GI50 in the test on SNB-19 CNS is 1.59 µM. Further, the TGI is 8.22 µM with A549 NSCLC; 5.45 µM in the test on CCRF-CEM leukemia; 2.99 µM in the test on HCT-116 colon; 6.71 µM in the test with K-562 leukemia; 3.41 µM in the test with KM12 colon; 3.97 µM in the test on SK-MEL-2 melanoma. Moreover, the concentration for total growth inhibition (TGI) with SNB-19 CNS came to 3.24 µM.

With `CCC1CNC(=O)CC1CC(=O)OC` (stereo unspecified), the concentration for total growth inhibition (TGI) in the test on A549 NSCLC, in the test with HCT-116 colon, in the test on K-562 leukemia, in the test on KM12 colon, in the test with LOX IMVI melanoma and with SK-MEL-2 melanoma was more than 100 µM each time. In addition, the TGI in the test with SNB-19 CNS is more than 100 µM.

With `CC1OC(OC2CCC3(C=O)C4CCC5(C)C(C6=CC(=O)OC6)CCC5(O)C4CCC3(O)C2)C(O)C(O)C1O` (stereo unspecified), the concentration for total growth inhibition (TGI) stood at 0.0025 µM in the test on COLO 205 colon; 0.000263 µM with K-562 leukemia; 0.000298 µM in the test with KM12 colon; 6.73e-05 µM in the test with LOX IMVI melanoma; 0.000326 µM in the test on SK-MEL-2 melanoma; 0.0657 µM in the test on SNB-19 CNS.

Turning to `Cc1ccc(NC(=O)CC(=O)N2N=C(N(CCC#N)c3cccc(C)c3)CC2c2ccccc2)cc1` (stereo unspecified), the TGI in the test on A549 NSCLC, in the test on CCRF-CEM leukemia, with COLO 205 colon, in the test with HCT-116 colon, in the test with HT29 colon and in the test with K-562 leukemia was more than 100 µM throughout. Also, the TGI with KM12 colon, in the test on SK-MEL-2 melanoma and in the test with SNB-19 CNS was more than 100 µM in each case.

As for `COc1cc2c(c(OC)c1OC)-c1ccc(SC)c(=O)cc1[C@@H](NC(=O)c1ccc(Cl)cc1)CC2`, the TGI in the test with A549 NSCLC is more than 100 µM; in the test on CCRF-CEM leukemia it was more than 100 µM; with COLO 205 colon, 0.0265 µM; in the test on HCT-116 colon it was 11.3 µM; in the test on HT29 colon, 11.2 µM; in the test with K-562 leukemia it was more than 100 µM. Further, the TGI in the test on LOX IMVI melanoma was found to be 14.1 µM; in the test on SK-MEL-2 melanoma, 5.47 µM; in the test with SNB-19 CNS it was 11.1 µM.

For `CCCCCCCCCCCCOP(N)(=O)OCCCCCCCCCCCC`, the TGI with A549 NSCLC, in the test with CCRF-CEM leukemia, in the test on COLO 205 colon, in the test with HCT-116 colon, in the test on K-562 leukemia and in the test with LOX IMVI melanoma was more than 100 µM throughout. In addition, the TGI with SNB-19 CNS is more than 100 µM.

Turning to `COc1cccc(C2NC(=S)NC(C)=C2C(=O)Nc2ccc(Cl)c(Cl)c2)c1` (stereo unspecified), the GI50 in the test on A549 NSCLC was 17.9 µM; in the test on COLO 205 colon, 9.41 µM; in the test with HCT-116 colon it was 8.47 µM; in the test with K-562 leukemia, 16.3 µM; in the test on KM12 colon, 10.1 µM; in the test on LOX IMVI melanoma, 7.93 µM. The GI50 was 15.7 µM in the test on SK-MEL-2 melanoma and 15.6 µM in the test on SNB-19 CNS. Besides, the concentration for total growth inhibition (TGI) in the test on A549 NSCLC is more than 50 µM; in the test on COLO 205 colon, 30.5 µM; in the test with HCT-116 colon, 15.9 µM; with K-562 leukemia, more than 50 µM; in the test with KM12 colon, 20.5 µM; with LOX IMVI melanoma, 15.1 µM. Further, the TGI in the test with SK-MEL-2 melanoma and with SNB-19 CNS was more than 50 µM throughout.

For the compound `C/C=C1\C(=O)OC2CCN3CCC(COC(=O)C(C)(O)C(C)C1O)C23` (stereo unspecified), the TGI in the test on A549 NSCLC, in the test on COLO 205 colon, with HCT-116 colon, in the test on HT29 colon, in the test on K-562 leukemia and with KM12 colon was more than 100 µM in each case. The TGI in the test on LOX IMVI melanoma, with SK-MEL-2 melanoma and in the test with SNB-19 CNS was more than 100 µM throughout.

Regarding `C[C@@H]1C[C@]2(C[C@@H](C)C3[C@@H](CC4(C)[C@@H]5CCC6C(C)(C)OC(=O)C=C[C@]67C[C@@]5(CC[C@]34C)OO7)O2)OC1=O` (stereo partly specified), the concentration for total growth inhibition (TGI) with A549 NSCLC, in the test on COLO 205 colon, in the test on HCT-116 colon, with HT29 colon, with K-562 leukemia and in the test on LOX IMVI melanoma was more than 100 µM throughout. Also, the TGI with SK-MEL-2 melanoma and in the test with SNB-19 CNS was more than 100 µM in each case.
